Measurements reported in paper PMC10882265 (RSC Advances, 2024).
Where “and” joins values, the source holds several entries; their conditions need not be identical. Identical values can stand only once.

Columns and labels:
human recombinant DPP-4 = human recombinant DPP-4 (Homo sapiens, UniProt P27487); experiment: biochemical; details: Inhibition of DPP-4 IC50, mean of three experiments
murine model of T2DM = details: oral, high fat diet + streptozotocin T2DM ref 35; cited from earlier work

Sequence of human recombinant DPP-4 (P27487 whole entry): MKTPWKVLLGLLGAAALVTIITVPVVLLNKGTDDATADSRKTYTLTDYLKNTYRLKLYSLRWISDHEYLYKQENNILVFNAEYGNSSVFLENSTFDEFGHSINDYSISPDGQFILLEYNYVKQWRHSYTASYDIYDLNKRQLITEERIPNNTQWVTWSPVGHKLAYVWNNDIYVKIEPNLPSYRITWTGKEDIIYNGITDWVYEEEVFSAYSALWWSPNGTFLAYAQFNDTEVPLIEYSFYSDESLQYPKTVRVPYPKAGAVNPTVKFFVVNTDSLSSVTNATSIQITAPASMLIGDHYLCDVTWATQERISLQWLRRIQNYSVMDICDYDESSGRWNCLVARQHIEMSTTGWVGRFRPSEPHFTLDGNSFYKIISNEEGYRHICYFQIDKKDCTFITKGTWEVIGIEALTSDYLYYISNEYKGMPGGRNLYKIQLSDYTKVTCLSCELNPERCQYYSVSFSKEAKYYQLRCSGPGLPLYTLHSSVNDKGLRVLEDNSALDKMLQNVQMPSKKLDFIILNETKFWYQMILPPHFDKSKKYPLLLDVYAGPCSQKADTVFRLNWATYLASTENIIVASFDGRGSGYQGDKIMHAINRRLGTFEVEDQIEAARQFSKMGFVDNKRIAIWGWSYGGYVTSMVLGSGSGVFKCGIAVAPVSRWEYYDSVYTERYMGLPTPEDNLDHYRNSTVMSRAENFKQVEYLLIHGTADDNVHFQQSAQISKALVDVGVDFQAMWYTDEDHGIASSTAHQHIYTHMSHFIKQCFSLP

Row | IC50 (human recombinant DPP-4) | Compound | antihyperglycemic effect (murine model of T2DM) | effect on cardiac and renal dysfunction (murine model of T2DM)
1 | 2.9 µM and 2.93 µM | NC(CC(=O)NNCc1ccc(F)c(F)c1)Cc1cc(F)c(F)cc1F (stereo not shown) [LASSBio-2127 (13), 3-amino-N'-(3,4-difluorobenzyl)-4-(2,4,5-trifluorophenyl)butanehydrazide] |  | 
2 | 44.7 µM | N[C@H](CC(=O)N/N=C/c1ccc(F)c(F)c1)Cc1cc(F)c(F)cc1F [LASSBio-2130 (6-S), (S,E)-3-amino-N'-(3,4-difluorobenzylidene)-4-(2,4,5-trifluorophenyl)butanehydrazide] |  | 
3 |  | N[C@@H](CC(=O)N1CCn2c(nnc2C(F)(F)F)C1)Cc1cc(F)c(F)cc1F [Sitagliptin (1), sitagliptin] | showed antihyperglycemic effects | improved cardiac and renal dysfunction
